The values that follow come from patent publication US20080175926A1, “Process for treating storage reservoirs contaminated with mycotoxins” (priority 2006, published 2008).

One test concerns Penicillium spp. The experiment in a line: Thermal fogging with eugenol of empty grain storage cells; Airtest trapping of Penicillium colonies on Petri dishes. To be noted: for Penicillium contamination (number colonies/Petri dish) After treatment: Airtest 100 l, 10 days after treatment. The procedure: (§1) Six cells (noted ‘20’, ‘L’, ‘12’, ‘F’, ‘8’ and ‘I’) were studied. These are concrete cells with a conical bottom (bottom for completely emptying the cell and eliminating more readily the debris and dust before ensilaging the next harvest). The cells identified by a number have a capacity of 350 t, those identified by a letter have a capacity of 50 t. The level of contamination of the six cells was evaluated by trapping the contaminated spores or particles using an Airtest introduced into the cell via an access hatch located at the base of the cell.
(§2) The Petri dishes 90 mm in diameter, placed in the Airtest and constituting the trap, contained a Malt Agar+Triton medium; the addition of triton modifies the development of the fungal colonies, which remain compact and are easy to count. The volume of air passing through the Airtest was set at 100 I, except for one cell in which we tested 4 different volumes of air (10 l, 20 l, 40 l, 100 l). For each mode, three repetitions (3Petri dishes) were carried out.
(§3) Two types of trapping were carried out; atmospheric trapping and trapping on the […]. In fact, these walls have rough patches and can retain mould spores or infected particles. The Airtest was placed approximately 5 mm from the wall.
(§4) […]
(§5) The eugenol thermal fogging treatment was carried out on a platform on which the thermal fogging device was installed.
(§6) 4 l and 20 l of eugenol, respectively, were subjected to thermal fogging at 230° C. (for approximately ¾ h) in cell L (≈50 m^3) and in cell 12 (≈350 m^3).

The test system of the next test is Aspergillus spp. The experiment in a line: Thermal fogging with eugenol of empty grain storage cells; Airtest trapping of Aspergillus colonies on Petri dishes. The conditions noted are these: for Aspergillus contamination (number colonies/Petri dish) After treatment: Airtest 100 l, 10 days after treatment. The procedure:
as §1, §2, §3, §4, §5, §6

The mark [1] stands for this setting: thermal fogging of eugenol in the cells, atmospheric and wall contamination.

In the case of `C=CCc1ccc(O)c(OC)c1` [eugenol], the “Penicillium contamination (number colonies/Petri dish) After treatment” value is on record as 400 number colonies/Petri dish with Penicillium spp. (cell 12 (wheat, ≈350 m^3), 20 l eugenol thermal fogging at 230° C., atmosphere trapping, before treatment 1240); 207 number colonies/Petri dish in the test with Penicillium spp. (cell 12 (wheat, ≈350 m^3), 20 l eugenol thermal fogging at 230° C., wall trapping, before treatment 1860); 106 number colonies/Petri dish in the test with Penicillium spp. (cell L (wheat, ≈50 m^3), 4 l eugenol thermal fogging at 230° C., atmosphere trapping, before treatment 2650); 85 number colonies/Petri dish in the test with Penicillium spp. (cell L (wheat, ≈50 m^3), 4 l eugenol thermal fogging at 230° C., wall trapping, before treatment 7500). Further, the “level of Penicillium spp. contamination after treatment (in words)” value in the test with Penicillium spp. (cells L and 12, thermal fogging with eugenol at 230° C., atmospheric and wall contamination) is listed as “clear decrease”. Also, in the test with Penicillium spp. (setting [1]), the “effectiveness against Penicillium spp. present in the grain storage cells (in words)” value is “very effective”. Further, the “Aspergillus contamination (number colonies/Petri dish) After treatment” value is 0 number colonies/Petri dish with Aspergillus spp. (cell 12 (wheat, ≈350 m^3), 20 l eugenol thermal fogging at 230° C., atmosphere trapping, before treatment 77); 0 number colonies/Petri dish in the test on Aspergillus spp. (cell 12 (wheat, ≈350 m^3), 20 l eugenol thermal fogging at 230° C., wall trapping, before treatment 85); 0 number colonies/Petri dish in the test with Aspergillus spp. (cell L (wheat, ≈50 m^3), 4 l eugenol thermal fogging at 230° C., atmosphere trapping, before treatment 0); 0 number colonies/Petri dish in the test on Aspergillus spp. (cell L (wheat, ≈50 m^3), 4 l eugenol thermal fogging at 230° C., wall trapping, before treatment 0). The “Aspergillus spp. contamination after treatment (in words)” value with Aspergillus spp. (cell 12, 20 l eugenol thermal fogging at 230° C.) is “completely controlled”. Also, the “effectiveness against Aspergillus spp. present in the grain storage cells (in words)” value in the test on Aspergillus spp. (setting [1]) is given as “very effective”.
